Assay results published in article PMC6596218, “Anthranilic amide and imidazobenzothiadiazole compounds disrupt Mycobacterium tuberculosis membrane potential” (MedChemComm, 2019).
Values after ≈ are worked out from the molar mass of the structure shown. “Also recorded” adds a separate entry of the source. Where two headings read alike, the source gives them in different places.

Key:
HepG2 cells [1] = experiment: HepG2 cytotoxicity (CellTiter-Glo, 72 h); type: cell-based; details: Homo sapiens, mean ± standard deviation, replicates in parentheses
M. tuberculosis H37Rv = experiment: Minimum bactericidal concentration at pH 4.5 (MBC4.5), luminescence readout; type: cell-based, Mycobacterium tuberculosis; details: for MBC: Mycobacterium tuberculosis, H37RV, 168 h; for antitubercular activity (by MBC4.5, in words): pH 4.5
[2] = test system: M. tuberculosis membrane potential; experiment: M. tuberculosis membrane potential (DiOC2 red/green fluorescence ratio); type: cell-based, Mycobacterium tuberculosis; details: CCCP positive control
[3] = test system: non-replicating M. tuberculosis; experiment: Non-replicating kill kinetics at pH 5.5 (CFU over 21 days); type: cell-based, Mycobacterium tuberculosis; details: single replicate
HepG2 cells [4] = type: cell-based, human; details: pH 7.4
Experimental: Measurement of membrane potential in HepG2 human liver cells (ATCC) was adapted from the method published by Huang.[40] Cells were plated at a density of 50 000 cells per well (100 μL) in black-walled 96-well plates and incubated overnight. Culture medium was replaced with the same volume of assay buffer (80 mM NaCl, 75 mM KCl, 25 mM D-glucose, 25 mM HEPES pH 7.4) containing test compounds at indicated concentrations; CCCP and DMSO served as controls. Plates were incubated at 37 °C for 30 min, followed by incubation with 4 μM DiOC2 for 20 min at RT. Cells were washed 4 times with 150 μL assay buffer, and suspended in 100 μL of assay buffer. A Synergy H1 microplate reader (BioTek Instruments) was used to measure fluorescence (488 nm/530 nm and 488 nm/620 nm). Each test compound was evaluated in at least two replicate experiments.

[5] = median, pH 4.5 phosphate citrate buffer, 7 days, 2-log reduction threshold, replicates in parentheses

Structure (SMILES): O=C(Nc1ccc(Cl)cc1)[C@@H]1CCCC[C@@H]1NS(=O)(=O)c1ccc(Br)cc1 (relative stereo) [Compound 30, cis-2-(4-bromophenylsulfonamido)-N-(4-chlorophenyl)cyclohexanecarboxamide]
- IC50 (HepG2 cells [1]): 76 ± 12 µM
- MBC (M. tuberculosis H37Rv; [5]): > 200 µM

Structure (SMILES): O=C(Nc1ccc(Cl)cc1)[C@@H]1CCCC[C@H]1NS(=O)(=O)c1ccc(Br)cc1 (relative stereo) [Compound 31, trans-2-(4-bromophenylsulfonamido)-N-(4-chlorophenyl)cyclohexanecarboxamide]
- IC50 (HepG2 cells [1]): 67 ± 12 µM
- MBC (M. tuberculosis H37Rv; [5]): > 200 µM

Structure (SMILES): O=C(Nc1ccc(Cl)cc1Cl)c1ccccc1NS(=O)(=O)c1ccc(Br)cc1 [Compound 1]
- IC50 (HepG2 cells [1]): 6.2 ± 1.1 µM
- disruption of M. tuberculosis membrane potential at pH 5.6 [2]: comparable disruption to CCCP at concentrations one or more orders of magnitude below their MBC4.5
- disruption of M. tuberculosis membrane potential at pH 6.8 [2]: depolarized the membrane nearly as strongly as known uncoupler carbonyl cyanide m-chlorophenyl hydrazone (CCCP)
- MBC (M. tuberculosis H37Rv; [5]): 6.3 µM (≈ 3.15 µg/mL)
- MBC4.5 (M. tuberculosis H37Rv; [5]): 6.3 (5) μM

Structure (SMILES): O=C(Nc1ccc(Cl)cc1)c1ccccc1NS(=O)(=O)c1ccc(Br)cc1 [Compound 3, 2-(4-bromophenylsulfonamido)-N-(4-chlorophenyl)benzamide]
- IC50 (HepG2 cells [1]): 11 ± 4.7 µM
- log kill within 7 days ([3]; pH 5.5, 7 days): > 3 log
- log kill at 14 days ([3]; pH 5.5, 14 days): > 4 log
- MBC (M. tuberculosis H37Rv; [5]): 50 µM (≈ 23.3 µg/mL)

Structure (SMILES): O=C(Nc1ccccc1)c1ccccc1NS(=O)(=O)c1ccc(Br)cc1 [Compound 4, 2-(4-bromophenylsulfonamido)-N-phenylbenzamide]
- IC50 (HepG2 cells [1]): 30 ± 3.5 µM
- disruption of HepG2 cell membrane potential (HepG2 cells [4]; human, 30 min): decrease in membrane potential in HepG2 cells comparable in magnitude to CCCP at concentrations significantly below the IC50
- disruption of M. tuberculosis membrane potential at pH 5.6 [2]: comparable disruption to CCCP at concentrations one or more orders of magnitude below their MBC4.5
- MBC (M. tuberculosis H37Rv; [5]): 100 µM (≈ 43.1 µg/mL)

Structure (SMILES): CCNC(=O)c1ccccc1NS(=O)(=O)c1ccc(Br)cc1 [Compound 5, 2-(4-bromophenylsulfonamido)-N-ethylbenzamide]
- IC50 (HepG2 cells [1]): > 100 µM
- MBC (M. tuberculosis H37Rv; [5]): > 200 µM

Structure (SMILES): NC(=O)c1ccccc1NS(=O)(=O)c1ccc(Br)cc1 [Compound 6, 2-(4-bromophenylsulfonamido)benzamide]
- IC50 (HepG2 cells [1]): > 100 µM
- disruption of HepG2 cell membrane potential (HepG2 cells [4]; human, 30 min): did not disrupt membrane potential at concentrations up to 200 μM
- disruption of M. tuberculosis membrane potential at pH 5.6 [2]: did not disrupt M. tuberculosis membrane potential
- MBC (M. tuberculosis H37Rv; [5]): > 200 µM

Structure (SMILES): O=C(Nc1ccc(Cl)cc1Cl)c1ccccc1NS(=O)(=O)c1ccccc1 [Compound 7, N-(2,4-dichlorophenyl)-2-(phenylsulfonamido)benzamide]
- IC50 (HepG2 cells [1]): 19 ± 9.2 µM
- MBC (M. tuberculosis H37Rv; [5]): > 200 µM

Structure (SMILES): Nc1ccccc1C(=O)Nc1ccc(Cl)cc1Cl [Compound 9, 2-amino-N-(2,4-dichlorophenyl)benzamide]
- IC50 (HepG2 cells [1]): 40 ± 2.3 µM
- MBC (M. tuberculosis H37Rv; [5]): 200 µM (≈ 56.2 µg/mL)

Structure (SMILES): CCNc1ccccc1C(=O)Nc1ccc(Cl)cc1Cl [Compound 10, N-(2,4-dichlorophenyl)-2-(ethylamino)benzamide]
- IC50 (HepG2 cells [1]): > 100 µM
- disruption of HepG2 cell membrane potential (HepG2 cells [4]; human, 30 min): did not disrupt membrane potential at concentrations up to 200 μM
- disruption of M. tuberculosis membrane potential at pH 5.6 [2]: caused membrane hyperpolarization
- MBC (M. tuberculosis H37Rv; [5]): > 200 µM

Structure (SMILES): O=C(Nc1ccc(Cl)cc1Cl)c1ccccc1NCc1ccc(Br)cc1 [Compound 12, 2-((4-bromobenzyl)amino)-N-(2,4-dichlorophenyl)benzamide]
- IC50 (HepG2 cells [1]): > 100 µM
- MBC (M. tuberculosis H37Rv; [5]): > 200 µM

Structure (SMILES): CC(=O)Nc1ccccc1C(=O)Nc1ccc(Cl)cc1Cl [Compound 13, 2-acetamido-N-(2,4-dichlorophenyl)benzamide]
- IC50 (HepG2 cells [1]): > 100 µM
- MBC (M. tuberculosis H37Rv; [5]): > 200 µM

Structure (SMILES): O=C(Nc1ccccc1C(=O)Nc1ccc(Cl)cc1Cl)c1ccc(Br)cc1 [Compound 14, 2-(4-bromobenzamido)-N-(2,4-dichlorophenyl)benzamide]
- IC50 (HepG2 cells [1]): > 100 µM
- MBC (M. tuberculosis H37Rv; [5]): > 200 µM

Structure (SMILES): CCCCNC(=O)c1ccccc1NS(=O)(=O)c1ccc(Br)cc1 [Compound 16, 2-(4-bromophenylsulfonamido)-N-butylbenzamide]
- IC50 (HepG2 cells [1]): 59 ± 0.71 µM
- disruption of HepG2 cell membrane potential (HepG2 cells [4]; human, 30 min): decrease in membrane potential in HepG2 cells comparable in magnitude to CCCP at concentrations significantly below the IC50
- disruption of M. tuberculosis membrane potential at pH 5.6 [2]: disruption at significantly lower concentrations relative to pH 6.8; also recorded: comparable disruption to CCCP at concentrations one or more orders of magnitude below their MBC4.5; also recorded: larger, more consistent degree of separation from DMSO than CCCP
- MBC (M. tuberculosis H37Rv; [5]): 100 µM (≈ 41.1 µg/mL)
- antitubercular activity (by MBC4.5, in words) (M. tuberculosis H37Rv): showed measurable anti-tubercular activity

Structure (SMILES): O=C(NC1CC1)c1ccccc1NS(=O)(=O)c1ccc(Br)cc1 [Compound 17, 2-(4-bromophenylsulfonamido)-N-cyclopropylbenzamide]
- IC50 (HepG2 cells [1]): > 100 µM
- MBC (M. tuberculosis H37Rv; [5]): > 200 µM

Structure (SMILES): C#CCNC(=O)c1ccccc1NS(=O)(=O)c1ccc(Br)cc1 [Compound 18, 2-(4-bromophenylsulfonamido)-N-(pro-2-yn-1-yl)benzamide]
- IC50 (HepG2 cells [1]): 83 ± 12 µM
- MBC (M. tuberculosis H37Rv; [5]): > 200 µM

Structure (SMILES): O=C(NC1CCCCCC1)c1ccccc1NS(=O)(=O)c1ccc(Br)cc1 [Compound 19, 2-(4-bromophenylsulfonamido)-N-cycloheptylbenzamide]
- IC50 (HepG2 cells [1]): 24 ± 6.4 µM
- MBC (M. tuberculosis H37Rv; [5]): > 200 µM

Structure (SMILES): O=C(NC1C2CC3CC(C2)CC1C3)c1ccccc1NS(=O)(=O)c1ccc(Br)cc1 (stereo not shown) [Compound 20, N-(adamantan-2-yl)-2-(4-bromophenylsulfonamido)benzamide]
- IC50 (HepG2 cells [1]): 20 ± 4.2 µM
- MBC (M. tuberculosis H37Rv; [5]): > 200 µM

Structure (SMILES): O=C(c1ccccc1NS(=O)(=O)c1ccc(Br)cc1)N1CCCCC1 [Compound 21, 4-bromo-N-(2-(piperidine-1-carbonyl)phenyl)benzenesulfonamide]
- IC50 (HepG2 cells [1]): > 100 µM
- MBC (M. tuberculosis H37Rv; [5]): > 200 µM

Structure (SMILES): O=C(c1ccccc1NS(=O)(=O)c1ccc(Br)cc1)N1CCOCC1 [Compound 22, 4-bromo-N-(2-(morpholine-4-carbonyl)phenyl)benzenesulfonamide]
- IC50 (HepG2 cells [1]): > 100 µM
- MBC (M. tuberculosis H37Rv; [5]): > 200 µM

Structure (SMILES): CN1CCN(C(=O)c2ccccc2NS(=O)(=O)c2ccc(Br)cc2)CC1 [Compound 23, 4-bromo-N-(2-(4-methylpiperizine-1-carbonyl)phenyl)benzenesulfonamide]
- IC50 (HepG2 cells [1]): > 100 µM
- MBC (M. tuberculosis H37Rv; [5]): > 200 µM

Structure (SMILES): CN(C(=O)c1ccccc1NS(=O)(=O)c1ccc(Br)cc1)c1ccc(Cl)cc1Cl [Compound 25, 2-(4-bromophenylsulfonamido)-N-(2,4-dichlorophenyl)-N-methylbenzamide]
- IC50 (HepG2 cells [1]): 60 ± 9.9 µM
- disruption of HepG2 cell membrane potential (HepG2 cells [4]; human, 30 min): decrease in membrane potential in HepG2 cells comparable in magnitude to CCCP at concentrations significantly below the IC50
- disruption of M. tuberculosis membrane potential at pH 5.6 [2]: maintained its disruption of M. tuberculosis membrane potential at pH 5.6
- disruption of M. tuberculosis membrane potential at pH 6.8 [2]: showed some capacity to depolarize the membrane, but the effect was at much higher concentrations
- MBC (M. tuberculosis H37Rv; [5]): > 200 µM
- antitubercular activity (by MBC4.5, in words) (M. tuberculosis H37Rv): loss of antitubercular activity

Structure (SMILES): O=C(Nc1ccc(Cl)cc1Cl)c1cccc(NS(=O)(=O)c2ccc(Br)cc2)c1 [Compound 26, 3-(4-bromophenylsulfonamido)-N-(2,4-dichlorophenyl)benzamide]
- IC50 (HepG2 cells [1]): 34 ± 3.5 µM
- MBC (M. tuberculosis H37Rv; [5]): > 200 µM
- antitubercular activity (by MBC4.5, in words) (M. tuberculosis H37Rv): loss of antitubercular activity

Structure (SMILES): O=C(Nc1ccc(Cl)cc1Cl)c1ccccc1S(=O)(=O)c1ccc(Br)cc1 [Compound 27, 2-((4-bromophenyl)sulfonyl)-N-(2,4-dichlorophenyl)benzamide]
- IC50 (HepG2 cells [1]): 89 ± 18 µM
- MBC (M. tuberculosis H37Rv; [5]): > 200 µM
- antitubercular activity (by MBC4.5, in words) (M. tuberculosis H37Rv): loss of antitubercular activity

Structure (SMILES): O=S(=O)(Nc1ccccc1CNc1ccc(Cl)cc1Cl)c1ccc(Br)cc1 [Compound 28, 4-bromo-N-(2-(((2,4-dichlorophenyl)amino)methyl)phenyl)benzenesulfonamide]
- IC50 (HepG2 cells [1]): 33 µM
- MBC (M. tuberculosis H37Rv; [5]): > 200 µM

Structure (SMILES): O=S(=O)(Nc1ccccc1COc1ccc(Cl)cc1Cl)c1ccc(Br)cc1 [Compound 29, 4-bromo-N-(2-((2,4-dichlorophenoxy)methyl)phenyl)benzenesulfonamide]
- IC50 (HepG2 cells [1]): 24 ± 6.4 µM
- MBC (M. tuberculosis H37Rv; [5]): > 200 µM

Structure (SMILES): O=C(Nc1ccc(Cl)cc1)c1ncccc1NS(=O)(=O)c1ccc(Br)cc1 [Compound 32, 3-(4-bromophenylsulfonamido)-N-(4-chlorophenyl)picolinamide]
- IC50 (HepG2 cells [1]): 5 ± 1.4 µM
- MBC (M. tuberculosis H37Rv; [5]): > 200 µM

Structure (SMILES): O=C(Nc1ccc(Cl)cc1)c1cccnc1NS(=O)(=O)c1ccc(Br)cc1 [Compound 33, 2-(4-bromophenylsulfonamido)-N-(4-chlorophenyl)nicotinamide]
- IC50 (HepG2 cells [1]): 20 ± 5.7 µM
- MBC (M. tuberculosis H37Rv; [5]): > 200 µM

Structure (SMILES): FC(F)(F)c1nc2ccc3nsnc3c2[nH]1 [Compound 34]
- IC50 (HepG2 cells [1]): 70 ± 11 µM
- MBC (M. tuberculosis H37Rv; [5]): 75 µM (≈ 18.3 µg/mL)

Structure (SMILES): CCn1cnc2c3nsnc3ccc21 [Compound 35]
- IC50 (HepG2 cells [1]): > 100 µM
- MBC (M. tuberculosis H37Rv; [5]): 75 µM (≈ 15.3 µg/mL)

Structure (SMILES): Nc1ccc2[nH]c(C3CCCCC3)nc2c1 [Compound 36]
- IC50 (HepG2 cells [1]): > 100 µM
- MBC (M. tuberculosis H37Rv; [5]): 100 µM (≈ 21.5 µg/mL)

Structure (SMILES): Cc1nnc(Sc2ccc3nsnc3c2[N+](=O)[O-])s1 [Compound 37]
- IC50 (HepG2 cells [1]): 5.6 ± 3.2 µM
- disruption of HepG2 cell membrane potential (HepG2 cells [4]): drop in membrane potential
- MBC (M. tuberculosis H37Rv; [5]): 19 µM (≈ 5.92 µg/mL)

Structure (SMILES): O=[N+]([O-])c1c(Sc2ccccn2)ccc2nsnc12 [Compound 38]
- IC50 (HepG2 cells [1]): 4.8 ± 0.86 µM
- disruption of HepG2 cell membrane potential (HepG2 cells [4]): drop in membrane potential
- MBC (M. tuberculosis H37Rv; [5]): 25 µM (≈ 7.26 µg/mL)
